According to patent US7528153B2, “Deoxynojirimycin analogues and their uses as glucosylceramidase inhibitors” (Genzyme Corporation, priority 2003, dated 2009):
Blank lines part the entries; values can stand above or below the compound they belong to.

Assays:
Cellular toxicity = assay type: cell-based; conditions: at doses envisioned during therapy
Bioavailability = assay type: in vivo; conditions: orally administered
Metabolism = conditions: in vivo
Maltase = experiment: In vitro inhibition of intestinal maltase; assay type: biochemical; conditions: Table 1
MEB4 culture = experiment: Pigmentation of MEB4 melanoma culture; assay type: cell-based, murine; conditions: inhibition of glycosphingolipid synthesis in MEB4 culture
Source text: Two melanoma cultures, one dark pigmented (An) and the other very lightly pigmented (M14) show a clearly higher content of glucosylceramide (GlcCer) in the darkly pigmented culture both in the total cell extract and in a melanosomal fraction.

A-Galactosidase = target: T1, A-Galactosidase (Homo sapiens, UniProt P06280); experiment: In vitro inhibition of lysosomal A-galactosidase (4-MU substrate, purified enzyme from spleen); assay type: biochemical; conditions: Table 3, read-out: Apparent in vitro IC50 value, A-Galactosidase
T1 construct: measured with appropriate 4-MU substrates using purified enzymes from spleen; from tissue; host or cells: spleen
T1 sequence (P06280 32-429): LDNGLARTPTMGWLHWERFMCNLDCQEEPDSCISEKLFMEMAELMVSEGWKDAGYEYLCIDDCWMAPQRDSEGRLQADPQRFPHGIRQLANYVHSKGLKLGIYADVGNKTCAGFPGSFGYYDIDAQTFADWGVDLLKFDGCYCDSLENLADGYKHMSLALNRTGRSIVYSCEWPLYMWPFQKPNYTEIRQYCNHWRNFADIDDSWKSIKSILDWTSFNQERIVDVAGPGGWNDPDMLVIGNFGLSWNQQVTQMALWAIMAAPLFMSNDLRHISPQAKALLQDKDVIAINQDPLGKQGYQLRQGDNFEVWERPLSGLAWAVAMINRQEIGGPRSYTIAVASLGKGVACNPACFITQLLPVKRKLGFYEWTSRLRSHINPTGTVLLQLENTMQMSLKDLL

Hexosaminidase = experiment: In vitro inhibition of lysosomal hexosaminidase (4-MU substrate, purified enzyme from spleen); assay type: biochemical; conditions: Table 3, read-out: Apparent in vitro IC50 value, Hexosaminidase
human melanocytes = experiment: Pigmentation / melanin production in melanocytes; assay type: cell-based; conditions: melanocytes of lighter and darker skin type, within a single culture passage
Source text: Iminosugars were designed that harbour optimal features for use in skin. Ceramide and glucosylceramide are important structural components of the stratum corneum and regulate water permeability of the skin. It is known that glucosylceramides together with other polar lipids are secreted into the extracellular space of the stratum corneum by lamellar bodies and are subsequently processed to ceramides. […] Iminosugars should therefore not interfere with the crucial generation of ceramide from glucosylceramide catalysed by lysosomal glucocerebrosidase.
The pharmaceutical application of the deoxynojirimycin analogues according to the invention and will be in post-inflammatory hyperpigmentation and skin inflammatory conditions. There is strong evidence that when administered systemically these deoxynojirimycin analogues have strong anti-inflammatory activity in vivo.

b-Galactosidase = target: T2, b-Galactosidase (Homo sapiens, UniProt P16278); experiment: In vitro inhibition of lysosomal b-galactosidase (4-MU substrate, purified enzyme from spleen); assay type: biochemical; conditions: Table 3, read-out: Apparent in vitro IC50 value, A b-Galactosidase
T2 construct: measured with appropriate 4-MU substrates using purified enzymes from spleen; from tissue; host or cells: spleen
T2 sequence (P16278 29-677): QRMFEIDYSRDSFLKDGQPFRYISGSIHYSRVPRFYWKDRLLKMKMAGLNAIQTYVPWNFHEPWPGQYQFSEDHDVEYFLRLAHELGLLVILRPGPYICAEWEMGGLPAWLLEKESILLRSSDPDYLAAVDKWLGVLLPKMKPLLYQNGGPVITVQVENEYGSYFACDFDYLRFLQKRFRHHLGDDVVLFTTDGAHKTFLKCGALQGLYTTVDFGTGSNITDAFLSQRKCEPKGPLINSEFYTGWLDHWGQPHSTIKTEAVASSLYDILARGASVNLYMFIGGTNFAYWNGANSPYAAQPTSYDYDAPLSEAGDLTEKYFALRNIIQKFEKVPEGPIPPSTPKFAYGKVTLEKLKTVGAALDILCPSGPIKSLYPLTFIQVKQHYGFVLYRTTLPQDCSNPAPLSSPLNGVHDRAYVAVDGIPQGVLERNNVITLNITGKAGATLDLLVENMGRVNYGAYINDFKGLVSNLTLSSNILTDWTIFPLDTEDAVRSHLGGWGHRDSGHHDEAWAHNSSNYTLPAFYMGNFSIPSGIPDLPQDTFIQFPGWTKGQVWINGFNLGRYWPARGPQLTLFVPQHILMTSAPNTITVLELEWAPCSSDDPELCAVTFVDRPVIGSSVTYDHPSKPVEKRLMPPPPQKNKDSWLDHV

[1] = target: T3, lysosomal alfa-glucosidase (Homo sapiens, UniProt P10253); experiment: In vitro inhibition of lysosomal alfa-glucosidase (4-MU substrate, purified enzyme from spleen); assay type: biochemical; conditions: Table 3, read-out: Apparent in vitro IC50 value, a-Glucosidase
T3 construct: measured with appropriate 4-MU substrates using purified enzymes from spleen; from tissue; host or cells: spleen

[2] = test system: glycosphingolipid synthesis; conditions: 100 mg TID, Gaucher patients; cited from earlier work

Bioavailability (Bioavailability): highly bioavailable
Metabolism (Metabolism): metabolically inert
IC50 (Maltase): > 25 µM
SMILES: OC[C@@H]1[C@@H](O)[C@H](O)[C@@H](O)CN1CCCCCOCC12CC3CC(CC(C3)C1)C2 [N-(5-adamantane-1-yl-methoxy-pentyl)deoxynojirimycin, reference compound]
Cellular toxicity (Cellular toxicity): no intrinsic cellular toxicity

SMILES: OC[C@@H]1[C@H](O)[C@H](O)[C@H](O)CN1CCCCCOCC12CC3CC(CC(C3)C1)C2 [N-(adamantane-1-yl-methoxypentyl)-L-ido-deoxynojirimycin]
Pigmentation of MEB4 culture (MEB4 culture): loss of pigmentation
Cellular toxicity (Cellular toxicity): no cellular toxicity
Bioavailability (Bioavailability): well bioavailable
IC50 (A-Galactosidase): > 100 µM
IC50 (Hexosaminidase): > 100 µM
Pigmentation / melanin production in melanocytes (human melanocytes): reduce melanin production
Pigmentation / melanin production in melanocytes (human melanocytes; listed as ido-N-(5-adamantane-1-yl-methoxy-pentyl)deoxynojirimycin): significant decrease in pigmentation
IC50 (b-Galactosidase): > 100 µM
IC50 (Maltase): > 100 µM

SMILES: CCCCN1C[C@H](O)[C@@H](O)[C@H](O)[C@H]1CO [N-butyl-deoxynojirimycin, reference compound]
IC50 (Hexosaminidase): > 100 µM
IC50 [1]: 0.8 µM
Inhibition of glycosphingolipid synthesis [2]: 20-30%
IC50 (b-Galactosidase): > 100 µM
